# Measured values taken from ChEMBL document CHEMBL1201862, “PubChem BioAssay data set” (2004).
#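 Results reflect a 48-hour exposure of cells in 96-well plates to compound at five concentrations. The concentration for 50% growth inhibition is given as GI50.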 Calls of active or inactive are those of the source. Rule as the data show it: active = GI50 up to about 1.1 µM and inactive = higher.
# Assays:
# Assay in all cases: DTP human tumour cell line panel, 48 h
# [1] = test system: U-251
# [2] = test system: KM12
# [3] = test system: SR
# [4] = test system: M14
# [5] = test system: HT-29
# [6] = test system: SNB-19
# [7] = test system: UO-31
# [8] = test system: MCF7
# [9] = test system: MOLT-4
# [10] = test system: MDA-N
# [11] = test system: UACC-62
# [12] = test system: Malme-3M
# [13] = test system: DU-145
# [14] = test system: HCT-15
# [15] = test system: A498
# [16] = test system: SK-MEL-2
# [17] = test system: NCI-H460
# [18] = test system: HL-60
# [19] = test system: SNB-75
# [20] = test system: NCI/ADR-RES
# [21] = test system: CAKI-1
# [22] = test system: RXF 393
# [23] = test system: K562
# [24] = test system: OVCAR-8
# [25] = test system: CCRF-CEM
# [26] = test system: IGROV-1
# [27] = test system: HOP-92
# [28] = test system: OVCAR-5
# [29] = test system: SF-295
# [30] = test system: SK-OV-3
# [31] = test system: NCI-H226
# [32] = test system: BT-549
# [33] = test system: NCI-H522
# [34] = test system: SK-MEL-28
# [35] = test system: T47D
# [36] = test system: PC-3
# [37] = test system: OVCAR-3
# [38] = test system: Hs-578T
# [39] = test system: SK-MEL-5
# [40] = test system: SN12C
# [41] = test system: NCI-H23
# [42] = test system: HOP-62
# [43] = test system: COLO 205
# [44] = test system: MDA-MB-435
# [45] = test system: MDA-MB-231
# [46] = test system: HCC 2998
# [47] = test system: RPMI-8226
# [48] = test system: ACHN
# [49] = test system: HCT-116
# [50] = test system: TK-10
# [51] = test system: SF-539
# [52] = test system: A549
# [53] = test system: OVCAR-4
# [54] = test system: 786-0
# [55] = test system: SF-268
# [56] = test system: UACC-257
# [57] = test system: EKVX
# [58] = test system: LOX IMVI
# [59] = test system: SW-620
smiles,measurement,setting,value
CC(=O)OC1CC[C@@]2(C)C(=CC[C@@H]3[C@@H]2CC[C@]2(C)Nc4nn(S(C)(=O)=O)cc4C[C@@H]32)C1 (stereo not given in full),GI50,[1],36.1 µM (inactive)
same,GI50,[2],31.8 µM (inactive)
same,GI50,[3],36.4 µM (inactive)
same,GI50,[4],20.7 µM (inactive)
same,GI50,[5],11.6 µM (inactive)
same,GI50,[6],79.4 µM (inactive)
same,GI50,[7],37 µM (inactive)
same,GI50,[8],16.6 µM (inactive)
same,GI50,[9],16.1 µM (inactive)
same,GI50,[10],29 µM (inactive)
same,GI50,[11],21.8 µM (inactive)
same,GI50,[12],27.3 µM (inactive)
same,GI50,[13],35.9 µM (inactive)
same,GI50,[14],24.2 µM
same,GI50,[15],> 100 µM (inactive)
same,GI50,[16],22.3 µM (inactive)
same,GI50,[17],18.7 µM (inactive)
same,GI50,[18],> 10 µM (inactive)
same,GI50,[19],24.2 µM (inactive)
same,GI50,[20],29.9 µM (inactive)
same,GI50,[21],40.1 µM (inactive)
same,GI50,[22],18.6 µM (inactive)
same,GI50,[23],12.1 µM (inactive)
same,GI50,[24],32.5 µM (inactive)
same,GI50,[25],10.6 µM (inactive)
same,GI50,[26],73.6 µM (inactive)
same,GI50,[27],49.5 µM (inactive)
same,GI50,[28],37.9 µM (inactive)
same,GI50,[29],34 µM (inactive)
same,GI50,[30],> 100 µM (inactive)
same,GI50,[31],27.7 µM (inactive)
same,GI50,[32],20.3 µM (inactive)
same,GI50,[33],35.2 µM (inactive)
same,GI50,[34],28.4 µM (inactive)
same,GI50,[35],14.2 µM (inactive)
same,GI50,[36],28.2 µM (inactive)
same,GI50,[37],24.2 µM (inactive)
same,GI50,[38],67 µM (inactive)
same,GI50,[39],15.2 µM (inactive)
same,GI50,[40],59.7 µM (inactive)
same,GI50,[41],35.1 µM (inactive)
same,GI50,[42],43.9 µM (inactive)
same,GI50,[43],35.7 µM (inactive)
same,GI50,[44],20 µM (inactive)
same,GI50,[45],31 µM (inactive)
same,GI50,[46],30.4 µM (inactive)
same,GI50,[47],30 µM (inactive)
Cc1cc(C)c2c(n1)S(=O)(=O)N(CCCN1CCN(c3cccc(C(F)(F)F)c3)CC1)c1c-2nn(C)c1C,GI50,[48],> 100 µM (inactive)
same,GI50,[49],61.8 µM (inactive)
same,GI50,[1],> 100 µM (inactive)
same,GI50,[50],> 100 µM (inactive)
same,GI50,[2],52.8 µM (inactive)
same,GI50,[3],19.4 µM (inactive)
same,GI50,[4],43.9 µM (inactive)
same,GI50,[5],16.6 µM (inactive)
same,GI50,[51],> 100 µM (inactive)
same,GI50,[6],> 100 µM (inactive)
same,GI50,[7],44.4 µM (inactive)
same,GI50,[52],65.6 µM (inactive)
same,GI50,[8],38.5 µM (inactive)
same,GI50,[9],10.8 µM (inactive)
same,GI50,[53],75.3 µM (inactive)
same,GI50,[10],39.9 µM (inactive)
same,GI50,[11],58.7 µM (inactive)
same,GI50,[12],> 100 µM (inactive)
same,GI50,[13],> 100 µM (inactive)
same,GI50,[54],> 100 µM (inactive)
same,GI50,[55],> 100 µM (inactive)
same,GI50,[14],44.5 µM
same,GI50,[15],> 100 µM (inactive)
same,GI50,[16],> 100 µM (inactive)
same,GI50,[17],89.3 µM (inactive)
same,GI50,[18],24 µM (inactive)
same,GI50,[56],32.5 µM (inactive)
same,GI50,[57],> 100 µM (inactive)
same,GI50,[19],> 100 µM (inactive)
same,GI50,[20],53.3 µM (inactive)
same,GI50,[21],43.1 µM (inactive)
same,GI50,[22],> 100 µM (inactive)
same,GI50,[23],30.3 µM (inactive)
same,GI50,[24],> 100 µM (inactive)
same,GI50,[25],66.7 µM (inactive)
same,GI50,[26],55.2 µM (inactive)
same,GI50,[27],45.3 µM (inactive)
same,GI50,[28],> 100 µM (inactive)
same,GI50,[29],52.7 µM (inactive)
same,GI50,[30],> 100 µM (inactive)
same,GI50,[31],30.7 µM (inactive)
same,GI50,[32],> 100 µM (inactive)
same,GI50,[33],57.4 µM (inactive)
same,GI50,[34],60 µM (inactive)
same,GI50,[35],> 100 µM (inactive)
same,GI50,[36],25.9 µM (inactive)
same,GI50,[37],67.1 µM (inactive)
same,GI50,[38],> 100 µM (inactive)
same,GI50,[39],23.1 µM (inactive)
same,GI50,[40],97.5 µM (inactive)
same,GI50,[41],61.2 µM (inactive)
same,GI50,[42],> 100 µM (inactive)
same,GI50,[43],26.1 µM (inactive)
same,GI50,[44],40.5 µM (inactive)
same,GI50,[45],> 100 µM (inactive)
same,GI50,[58],52.6 µM (inactive)
same,GI50,[59],> 100 µM (inactive)
same,GI50,[46],> 100 µM (inactive)
